Experimental data: patent US20030186464A1, “Surface plasmon resonance methods” (priority 2002, published 2003)
Changes are numbered by the printed parent chain.

Tests used:
IL1R-I13C = biological target: T1, IL1R-I13C (Homo sapiens, UniProt P14778, I30C); assay: SPR ranking of reversible covalent (disulfide) bond formation with immobilized protein-thiolate (Examples 5-6); assay type: binding; conditions: disulfide compound 100 μM, reductant 500 μM; fraction of protein-thiolate on the chip covalently bound
T1 construct: soluble interleukin-1 receptor, type 1 having a mutation to cysteine; made in house; host or cells: E. coli or baculovirus-infected insect cells (TN-5B1-4, High Five)
T1 sequence (P14778 18-336 I30C): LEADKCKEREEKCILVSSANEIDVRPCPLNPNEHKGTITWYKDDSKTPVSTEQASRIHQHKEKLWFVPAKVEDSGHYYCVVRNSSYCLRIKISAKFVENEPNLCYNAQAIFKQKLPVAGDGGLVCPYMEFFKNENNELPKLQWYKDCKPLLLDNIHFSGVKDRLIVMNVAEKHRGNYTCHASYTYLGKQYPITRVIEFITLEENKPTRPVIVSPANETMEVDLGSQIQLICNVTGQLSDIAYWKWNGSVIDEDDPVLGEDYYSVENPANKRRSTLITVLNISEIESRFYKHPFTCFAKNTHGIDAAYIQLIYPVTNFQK
Method: (§1) A CM5 sensor chip (Biacore-BR-1000-14) is docked in a Biacore 2000 SPR device, and the chip is normalized using a standard Biacore protocol with 70% glycerol. The chip is equilibrated in PBS for approximately 1 hr at a 20 μL/min flow rate. The dextran surface of the chip is activated through an NHS/EDC coupling. This is done using an amine coupling kit (Biacore—BR-100-50) containing N-hydroxysuccinimide (NHS 11.5 mg/mL) and N-ethyl-N′-(3-dimethylaminopropyl) carbodiimide hydrochloride (EDC 75 mg/mL). The two reagents are mixed in a 1:1 ratio and then 35 μL of the mixture are injected at 5 μL/min. The chip is activated one flow cell at a time, and that flow cell is subsequently labeled with protein.
(§2) Protein having at least one cysteine is expressed in E. coli or baculovirus-infected insect cells (TN-5B1-4, High Five) and purified using standard procedures. This protein-thiolate is treated with 10 mM βME overnight to reduce the surface cysteine. The βME is removed and the protein-thiolate is placed in 100 mM MES Buffer pH 5.75 (Nap-5 column, Pierce). The protein-thiolate is then concentrated to 100 μM using a Millipore-UFV5BCCOO 5K NMWL membrane, 0.5 mL centrifugal filter and tube.
(§3) A sensorgram is then run over the activated flow cell at 2 μL/min of PBS. The protein-thiolate solution is then injected at 2 μL/min for 10 min. After injection one measures the change in RUs by marking the RUs at t=0 and t final and subtracting them. This subtraction gives the total RU change that is related to the total mass of protein successfully coupled to the CM5 surface. This value will later be used to determine stoichiometry of binding. This procedure is then repeated with various cysteine mutants that are immobilized on the adjacent cells. The sensorgram is then altered to flow across all 4 cells on the CM5 chip at 5,L/min PBS. A solution of 1 M ethanolamine hydrochloride-NaOH pH 8.5 (Amine coupling kit, Biacore—BR-100-50) is injected at 5 μL/min for 7 min. The chip is equilibrated overnight in 100 mM Tris pH 8+0.05% azide+1% DMSO at 20 μL/min.
(§4) Compounds are synthesized with a reactive disulfide linker (see, for example compound 2t in Example 2). From previous “tethering” experiments compounds that preferentially bind and form a covalent bond with specific cysteine mutants at the active sites of proteins are chosen for these SPR experiments. The compounds are known to form this covalent attachment at relatively high levels of reductant [βME (2-mercaptoethanol, Sigma)], indicating a […] noncovalent binding interaction.
(§5) Dilutions series of the compounds are typically performed to produce seven solutions with compound concentrations of 50 mM, 25 mM, 12.5 mM, 6.25 mM, 3.12 mM, 1.56 mM, and 0.78 mM in DMSO, with a final eighth point as a DMSO only baseline. The compounds are then diluted into 100 mM Tris pH 8+0.05% azide+500 μM βME, to final compound concentrations of 500 μM, 250 μM, 125 μM, 62.5 μM, 31.2 μM, 15.6 μM, and 7.8 μM. The compound solutions are injected from lowest concentration to highest at 2 μL/min for 20 min. The SPR software method includes a 1 min wash before injection, the injection and then a 10 min wash after the injection. This particular protocol employs a regeneration step to reduce off the compound that is covalently bound before the next injection. The regeneration is accomplished by injecting 10 mM βME at 2 μL/min for 20 min.
(§6) These dilution series are analyzed by BIAevaluation software version 3.0. Sensorgrams are plotted for compound binding to cells of the chip labeled with protein-thiolate. The sensorgrams are modified by subtracting the sensorgrams for the appropriate compound dilutions over cell 1 (a blank cell). This subtraction step removes any RU changes that might occur due to nonspecific interactions between the compound and the chip itself or refractive changes in the buffer. Finally, the eight sensorgrams produced from the compound dilution series are zeroed at the average of their starting RUs. […]

IL1R-I29C = biological target: T2, IL1R-I29C (Homo sapiens, UniProt P14778); assay: as above; assay type: binding; conditions: disulfide compound 100 μM, reductant 500 μM; fraction of protein-thiolate on the chip covalently bound
T2 construct: soluble interleukin-1 receptor, type 1 having a mutation to cysteine; made in house; host or cells: E. coli or baculovirus-infected insect cells (TN-5B1-4, High Five)
T2 sequence (P14778 18-336 E146C): T1 sequence (P14778 18-336 I30C) with C13I, E129C
Method: as §1, §2, §3, §4, §5, §6

## COc1cc(C(=O)N2CCCC(C(=O)NCCSSCCN)C2)ccc1O (centres unmarked) [Compound 15t]
IL1R-I13C
  Fraction bound IL1R-I13C: 0.0
IL1R-I29C
  Fraction bound IL1R-I29C: 0.2

## COC(=O)c1cccc(NC(=O)c2ccc(NC(=O)CSSCCN)cc2)c1 [Compound 13t]
IL1R-I13C
  Fraction bound IL1R-I13C: 0.0
IL1R-I29C
  Fraction bound IL1R-I29C: 0.0

## NCCSSCCC(=O)NC(c1ccccc1)c1cc2ccccc2cn1 (centres unmarked) [Compound 14t]
IL1R-I13C
  Fraction bound IL1R-I13C: 0.0
IL1R-I29C
  Fraction bound IL1R-I29C: 0.6

## CC(=O)c1ccccc1NC(=O)c1ccc(NC(=O)CSSCCN)cc1 [Compound 12t]
IL1R-I13C
  Fraction bound IL1R-I13C: 0.5
IL1R-I29C
  Fraction bound IL1R-I29C: 0.0
